According to patent publication US20140329863A1 (priority 2011, published 2014):
Like-named read-outs stand apart in the source and are kept apart here.

Assays:
[1] = test system: PrP^Sc in nondividing ScN2a-cl3 cells; format: cell-based, mouse; conditions: read-out: Non-Dividing ELISA EC50 (μM) Mean (n = 3); ScN2a-c13 non-dividing cells; mean n = 3
N2a-cl3 cells = assay: cells; conditions: Mus musculus, N2a-cl3, read-out: Dividing Calcein EC50 (μM) Mean (n = 3)
[2] = test system: PrP^Sc in dividing ScN2a-cl3 cells; format: cell-based, mouse; set-up: Dividing ELISA pEC50 (μM) 1st Expt. / Dividing ELISA pEC50 (μM) 2nd Expt. / Dividing ELISA pEC50 (μM) 3rd Expt. / Dividing ELISA pEC50 (μM) Mean: unit not given here; conditions: ScN2a-cl3 dividing cells
[3] = read-out: Dividing ELISA EC50 (μM) 1st Expt., 1st determination
[4] = read-out: Dividing ELISA EC50 (μM) 2nd Expt., 2nd determination
[5] = read-out: Dividing ELISA EC50 (μM) 3rd Expt., 3rd determination
[6] = read-out: Dividing ELISA EC50 (μM) Mean, mean of three determinations

Row | SMILES | EC50 [1] [µM] | melting point [°C] | EC50 (N2a-cl3 cells) [µM] | Dividing ELISA pEC50 (μM) 1st Expt. ([2]; 1st determination) | Dividing ELISA pEC50 (μM) 2nd Expt. ([2]; 2nd determination) | Dividing ELISA pEC50 (μM) 3rd Expt. ([2]; 3rd determination) | Dividing ELISA pEC50 (μM) Mean ([2]; mean of three determinations) | EC50 [2, 3] [µM] | EC50 [2, 4] [µM] | EC50 [2, 5] [µM] | EC50 [2, 6] [µM]
1 | COc1ccc(-c2csc(Nc3cnccn3)n2)cc1OC [compound 11, [4-(3,4-dimethoxyphenyl)-thiazol-2-yl]pyrazin-2-yl-amine] | > 32 | 205 to 207 | > 32 | 4.59 | 5.03 | 4.93 | 4.85 | 26 | 9.23 | 11.7 | 15.6
2 | c1ccc(-c2csc(Nc3cc4ccccc4cn3)n2)cc1 [compound 33, Isoquinolin-3-yl-(4-phenylthiazol-2-yl)-amine] | > 32 | 265 to 267 | > 32 | 5.69 | 5.55 | 5.37 | 5.53 | 2.06 | 2.85 | 4.32 | 3.08
3 | COc1ccccc1-c1csc(Nc2ccc(C)cn2)n1 [compound 22, [4-(2-Methoxyphenyl)-thiazol-2-yl]-(5-methylpyridin-2-yl)-amine] | > 32 | 228 to 230 | > 32 | >4.5 | 4.58 | 4.52 | – | > 32 | 26.1 | 30.2 | > 29
4 | COc1ccc(-c2csc(Nc3ccncc3)n2)cc1OC [compound 8, [4-(3,4-dimethoxyphenyl)-thiazol-2-yl]pyridin-4-yl-amine] | > 32 | 205 to 207 | > 32 | >4.5 | 4.60 | 4.57 | – | > 32 | 25.2 | 26.9 | > 28
5 | COc1ccc(-c2csc(Nc3ncccc3C)n2)cc1OC [compound 15, [4-(3,4-dimethoxyphenyl)-thiazol-2-yl]-(3-methylpyridin-2-yl)-amine] | > 32 | 264 to 266 | > 32 | 4.89 | 5.68 | 5.17 | 5.25 | 13 | 2.07 | 6.81 | 7.29
6 | COc1ccc(-c2csc(NC(=O)c3cc4ccccc4cn3)n2)cc1OC [compound 47, Isoquinoline-3-carboxylic acid [4-(3,4-dimethoxyphenyl)-thiazol-2-yl]amide] | > 10 | 228 to 230 | > 10 | 5.01 | 5.41 | 4.97 | 5.13 | 9.81 | 3.93 | 10.8 | 8.18
7 | COc1ccc(-c2csc(Nc3cccc(C)n3)n2)cc1OC [compound 4, [4-(3,4-dimethoxyphenyl)-thiazol-2-yl]-(6-methylpyridin-2-yl)-amine] | > 32 | 264 to 266 | > 32 | 5.25 | 5.92 | 5.65 | 5.61 | 5.62 | 1.19 | 2.22 | 3.01
8 | COc1ccc(-c2csc(Nc3ccccc3)n2)cc1OC [compound 9, [4-(3,4-dimethoxyphenyl)-thiazol-2-yl]-phenyl-amine] | > 32 | 170 to 174 | > 32 | 5.13 | 5.14 | 5.35 | 5.21 | 7.4 | 7.29 | 4.45 | 6.38
9 | COc1ccc(-c2csc(Nc3ccc4ccccc4c3)n2)cc1OC [compound 19, [4-(3,4-dimethoxyphenyl)-thiazol-2-yl]-naphthalen-2-yl-amine] | > 32 | 221 to 224 | > 32 | 6.36 | 6.50 | 6.38 | 6.41 | 0.436 | 0.317 | 0.413 | 0.389
10 | c1ccc(-c2ccc(-c3csc(Nc4cc5ccccc5cn4)n3)s2)nc1 [compound 34, Isoquinolin-3-yl-[4-(5-pyridin-2-yl-thiophen-2-yl)-thiazol-2-yl]-amine] | > 32 | 246 to 248 | > 32 | 5.65 | 5.79 | 5.67 | 5.70 | 2.25 | 1.61 | 2.16 | 2.01
11 | COc1ccc(-c2csc(C(=O)Nc3cc4ccccc4cn3)n2)cc1OC [compound 48, 4-(3,4-dimethoxyphenyl)-thiazole-2-carboxylic acid isoquinolin-3-ylamide] | > 10 | 196 to 202 | > 10 | >4.5 | >4.5 | >4.5 | – | > 10 | > 10 | > 10 | > 10
12 | COc1ccc(-c2csc(N(C)c3cc4ccccc4cn3)n2)cc1OC [compound 49, [4-(3,4-dimethoxyphenyl)-thiazol-2-yl]-isoquinolin-3-yl-methyl-amine] | > 10 | 165 to 166 | > 10 | 6.82 | 6.71 | 7.08 | 6.87 | 0.152 | 0.196 | 0.083 | 0.144
13 | Cc1cccc(Nc2nc(-c3cc(-c4ccccc4)no3)cs2)n1 [compound 44, (6-Methylpyridin-2-yl)-[4-(3-phenylisoxazol-5-yl)-thiazol-2-yl]-amine] | > 32 | 291 to 293 | > 32 | 6.03 | 6.13 | 6.10 | 6.09 | 0.926 | 0.733 | 0.794 | 0.818
14 | c1ccc(-c2cc(-c3csc(Nc4ccccn4)n3)on2)cc1 [compound 42, [4-(3-Phenylisoxazol-5-yl)-thiazol-2-yl]pyridin-2-yl-amine] | > 32 | 211 to 215 | > 32 | 6.20 | 6.22 | 6.23 | 6.22 | 0.629 | 0.599 | 0.585 | 0.604
